In patent US20190338290A1, “TREATMENT OF SARCOMA” (MEMORIAL SLOAN KETTERING CANCER CENTER, priority 2017, published 2019):

System: SS18-SSX / KDM2B co-localization
Assay: Proximity ligation assay (PLA) of SS18-SSX and KDM2B
Format: cell-based, human
Conditions: HS-SY-II cells, SS18-SSX knockdown
Procedure: Indicated synovial sarcoma cell lines were seeded at 3×10^4 cells/well in culture treated 8-well chamber slides and treated as previously described (Laporte et al., 2016). Primary antibodies for PLA were used at 1/1000 dilution: SS18 (Santa-Cruz Biotechnologies, sc-28698), KDM2B (Abnova, H00084678-M09), HA (Santa-Cruz Biotechnologies, sc-805). Proximity ligation was performed utilizing the Duolink® In Situ Red Starter Kit Mouse/Rabbit (Sigma-Aldrich, DUP92101-1KT) according to the manufacturer's protocol. Fluorescence was detected using a Zeiss Axioplan2 microscope at 40×. Images were quantified in triplicate using ImageJ software (NIH) as foci per nucleus, defined as the number of interaction points counted per nucleus. For PLA analysis upon SS18-SSX knockdown, duplex oligo (sense, […]; antisense, […]) SS18-SSX siRNAs were designed to target the SSX portion of SS18-SSX using the Integrated. DNA Technologies RNA interference (RNAi) design tool, and synthesized by Integrated DNA Technologies (IDT) as previously described (Lubieniecka et al., 2008). HS-SY-II cells were seeded in 6-well plates. At 60% confluence, cells were transfected with 50 pmol siSS18-SSX and 9 μL Lipofectamine RNAiMAX transfection reagent (Invitrogen) in Opti-MEM serum free media (Life Technologies). […]

Q: “SSX targeting siRNA: duplex oligo siRNA (sense CAAGAAGCCAGCAGAGGAATT; antisense UUCCUCUGCUGGCUUCUUGTT) designed to target the SSX portion of SS18-SSX (chemistry not given here)” was tested. Which “PLA signal (SS18 and KDM2B antibodies)” value did it give?
A: abolished
